In PubChem BioAssay (NCI):
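Growth conditions: 96-well plates. Treatment: test compound, 48 hours, 5 concentrations. Analysis: linear interpolation between bracketing concentrations; unreached endpoints set to highest concentration. TGI is the concentration that stops growth completely.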

Assays:
Assay in all cases: NCI anticancer screen, dose series, 48 h
SF-295 CNS = system: SF-295 CNS
SK-MEL-2 melanoma = system: SK-MEL-2 melanoma
SNB-75 CNS = system: SNB-75 CNS
PC-3 prostate = system: PC-3 prostate
RXF 393 renal = system: RXF 393 renal
COLO 205 colon = system: COLO 205 colon
HOP-62 NSCLC = system: HOP-62 NSCLC
CCRF-CEM leukemia = system: CCRF-CEM leukemia
NCI-H23 lung = system: NCI-H23 lung
KM12 colon = system: KM12 colon
OVCAR-3 ovarian = system: OVCAR-3 ovarian
UO-31 renal = system: UO-31 renal
CAKI-1 renal = system: CAKI-1 renal
NCI-H460 lung = system: NCI-H460 lung
IGROV1 ovarian = system: IGROV1 ovarian
SF-268 CNS = system: SF-268 CNS
UACC-257 melanoma = system: UACC-257 melanoma
EKVX NSCLC = system: EKVX NSCLC
T-47D breast = system: T-47D breast
A498 renal = system: A498 renal
SK-MEL-28 melanoma = system: SK-MEL-28 melanoma
MOLT-4 leukemia = system: MOLT-4 leukemia
U251 CNS = system: U251 CNS
TK-10 renal = system: TK-10 renal
K-562 leukemia = system: K-562 leukemia
NCI-H226 lung = system: NCI-H226 lung
ACHN renal = system: ACHN renal
SNB-19 CNS = system: SNB-19 CNS
BT-549 breast = system: BT-549 breast
HS 578T breast = system: HS 578T breast
SN12C renal = system: SN12C renal
HCT-15 colon = system: HCT-15 colon
MDA-MB-435 = system: MDA-MB-435
OVCAR-5 ovarian = system: OVCAR-5 ovarian
MDA-MB-231 breast = system: MDA-MB-231 breast
DU-145 prostate = system: DU-145 prostate
SK-OV-3 ovarian = system: SK-OV-3 ovarian
SW-620 colon = system: SW-620 colon
RPMI-8226 leukemia = system: RPMI-8226 leukemia
HCT-116 colon = system: HCT-116 colon
HT29 colon = system: HT29 colon
MALME-3M melanoma = system: MALME-3M melanoma
NCI/ADR-RES ovarian = system: NCI/ADR-RES ovarian
SR leukemia = system: SR leukemia
OVCAR-8 ovarian = system: OVCAR-8 ovarian
MCF7 breast = system: MCF7 breast
M14 melanoma = system: M14 melanoma
HOP-92 NSCLC = system: HOP-92 NSCLC
UACC-62 melanoma = system: UACC-62 melanoma
A549 NSCLC = system: A549 NSCLC
HCC-2998 colon = system: HCC-2998 colon
MDA-N = system: MDA-N
786-0 renal = system: 786-0 renal
OVCAR-4 ovarian = system: OVCAR-4 ovarian
SK-MEL-5 melanoma = system: SK-MEL-5 melanoma
LOX IMVI melanoma = system: LOX IMVI melanoma
SF-539 CNS = system: SF-539 CNS
NCI-H522 lung = system: NCI-H522 lung

CCOC(=O)Nc1cc(NC(/C=N/NC(C)=O)C(=O)OCC)c(OC)cc1NC(C)=O (centres undefined)
TGI (SF-295 CNS): > 100 µM | TGI (SK-MEL-2 melanoma): > 100 µM | TGI (SNB-75 CNS): > 100 µM | TGI (PC-3 prostate): > 100 µM | TGI (RXF 393 renal): > 100 µM | TGI (COLO 205 colon): > 100 µM | TGI (HOP-62 NSCLC): > 100 µM | TGI (CCRF-CEM leukemia): > 100 µM | TGI (NCI-H23 lung): > 100 µM | TGI (KM12 colon): > 100 µM | TGI (OVCAR-3 ovarian): > 100 µM | TGI (UO-31 renal): > 100 µM | TGI (CAKI-1 renal): > 100 µM | TGI (NCI-H460 lung): > 100 µM | TGI (IGROV1 ovarian): > 100 µM | TGI (SF-268 CNS): > 100 µM | TGI (UACC-257 melanoma): > 100 µM | TGI (EKVX NSCLC): > 100 µM | TGI (T-47D breast): > 100 µM | TGI (A498 renal): > 100 µM | TGI (SK-MEL-28 melanoma): > 100 µM | TGI (MOLT-4 leukemia): > 100 µM | TGI (U251 CNS): > 100 µM | TGI (TK-10 renal): > 100 µM | TGI (K-562 leukemia): > 100 µM | TGI (NCI-H226 lung): > 100 µM | TGI (ACHN renal): > 100 µM | TGI (SNB-19 CNS): > 100 µM | TGI (BT-549 breast): > 100 µM | TGI (HS 578T breast): > 100 µM | TGI (SN12C renal): > 100 µM | TGI (HCT-15 colon): > 100 µM | TGI (MDA-MB-435): > 100 µM | TGI (OVCAR-5 ovarian): > 100 µM | TGI (MDA-MB-231 breast): > 100 µM | TGI (DU-145 prostate): > 100 µM | TGI (SK-OV-3 ovarian): > 100 µM | TGI (SW-620 colon): > 100 µM | TGI (RPMI-8226 leukemia): > 100 µM | TGI (HCT-116 colon): > 100 µM | TGI (HT29 colon): > 100 µM | TGI (MALME-3M melanoma): > 100 µM | TGI (NCI/ADR-RES ovarian): > 100 µM | TGI (SR leukemia): > 100 µM | TGI (OVCAR-8 ovarian): > 100 µM | TGI (MCF7 breast): > 100 µM | TGI (M14 melanoma): > 100 µM | TGI (HOP-92 NSCLC): > 100 µM | TGI (UACC-62 melanoma): > 100 µM | TGI (A549 NSCLC): > 100 µM | TGI (HCC-2998 colon): > 100 µM | TGI (MDA-N): > 100 µM | TGI (786-0 renal): > 100 µM | TGI (OVCAR-4 ovarian): > 100 µM | TGI (SK-MEL-5 melanoma): > 100 µM

O=[N+]([O-])c1ccccc1N=Nc1c(O)[nH]c2ccc(S(=O)(=O)O)cc12
TGI (SF-295 CNS): > 100 µM | TGI (SK-MEL-2 melanoma): > 100 µM | TGI (SNB-75 CNS): > 100 µM | TGI (PC-3 prostate): > 100 µM | TGI (RXF 393 renal): > 100 µM | TGI (COLO 205 colon): > 100 µM | TGI (HOP-62 NSCLC): > 100 µM | TGI (LOX IMVI melanoma): > 100 µM | TGI (NCI-H23 lung): > 100 µM | TGI (KM12 colon): > 100 µM | TGI (OVCAR-3 ovarian): > 100 µM | TGI (UO-31 renal): > 100 µM | TGI (CAKI-1 renal): > 100 µM | TGI (NCI-H460 lung): > 100 µM | TGI (SF-539 CNS): > 100 µM | TGI (IGROV1 ovarian): > 100 µM | TGI (SF-268 CNS): > 100 µM | TGI (UACC-257 melanoma): > 100 µM | TGI (EKVX NSCLC): > 100 µM | TGI (T-47D breast): > 100 µM | TGI (A498 renal): > 100 µM | TGI (SK-MEL-28 melanoma): > 100 µM | TGI (MOLT-4 leukemia): > 100 µM | TGI (U251 CNS): > 100 µM | TGI (TK-10 renal): > 100 µM | TGI (K-562 leukemia): > 100 µM | TGI (NCI-H226 lung): > 100 µM | TGI (ACHN renal): > 100 µM | TGI (SNB-19 CNS): > 100 µM | TGI (BT-549 breast): > 100 µM | TGI (HS 578T breast): > 100 µM | TGI (SN12C renal): > 100 µM | TGI (HCT-15 colon): > 100 µM | TGI (MDA-MB-435): > 100 µM | TGI (OVCAR-5 ovarian): > 100 µM | TGI (MDA-MB-231 breast): > 100 µM | TGI (DU-145 prostate): > 100 µM | TGI (SK-OV-3 ovarian): > 100 µM | TGI (SW-620 colon): > 100 µM | TGI (RPMI-8226 leukemia): > 100 µM | TGI (HCT-116 colon): > 100 µM | TGI (HT29 colon): > 100 µM | TGI (MALME-3M melanoma): > 100 µM | TGI (NCI-H522 lung): > 100 µM | TGI (NCI/ADR-RES ovarian): > 100 µM | TGI (SR leukemia): > 100 µM | TGI (OVCAR-8 ovarian): > 100 µM | TGI (MCF7 breast): > 100 µM | TGI (M14 melanoma): > 100 µM | TGI (HOP-92 NSCLC): > 100 µM | TGI (UACC-62 melanoma): > 100 µM | TGI (A549 NSCLC): > 100 µM | TGI (MDA-N): > 100 µM | TGI (786-0 renal): > 100 µM | TGI (OVCAR-4 ovarian): > 100 µM | TGI (SK-MEL-5 melanoma): > 100 µM

OC/C=C/[C@H](OCc1ccccc1)[C@H](/C=C/CO)OCc1ccccc1
TGI (SF-295 CNS): > 100 µM | TGI (SK-MEL-2 melanoma): > 100 µM | TGI (SNB-75 CNS): > 100 µM | TGI (PC-3 prostate): > 100 µM | TGI (RXF 393 renal): > 100 µM | TGI (COLO 205 colon): > 100 µM | TGI (HOP-62 NSCLC): > 100 µM | TGI (LOX IMVI melanoma): 47.4 µM | TGI (CCRF-CEM leukemia): 51.4 µM | TGI (NCI-H23 lung): > 100 µM | TGI (KM12 colon): > 100 µM | TGI (OVCAR-3 ovarian): > 100 µM | TGI (UO-31 renal): > 100 µM | TGI (CAKI-1 renal): > 100 µM | TGI (NCI-H460 lung): > 100 µM | TGI (SF-539 CNS): > 100 µM | TGI (IGROV1 ovarian): > 100 µM | TGI (SF-268 CNS): 94.6 µM | TGI (UACC-257 melanoma): > 100 µM | TGI (EKVX NSCLC): > 100 µM | TGI (T-47D breast): 88.8 µM | TGI (A498 renal): > 100 µM | TGI (SK-MEL-28 melanoma): > 100 µM | TGI (MOLT-4 leukemia): 40 µM | TGI (U251 CNS): 69.1 µM | TGI (TK-10 renal): > 100 µM | TGI (K-562 leukemia): 54.7 µM | TGI (NCI-H226 lung): > 100 µM | TGI (ACHN renal): > 100 µM | TGI (SNB-19 CNS): 85.9 µM | TGI (BT-549 breast): > 100 µM | TGI (HS 578T breast): > 100 µM | TGI (SN12C renal): > 100 µM | TGI (HCT-15 colon): > 100 µM | TGI (MDA-MB-435): > 100 µM | TGI (OVCAR-5 ovarian): > 100 µM | TGI (MDA-MB-231 breast): > 100 µM | TGI (DU-145 prostate): > 100 µM | TGI (SK-OV-3 ovarian): > 100 µM | TGI (SW-620 colon): > 100 µM | TGI (RPMI-8226 leukemia): 42.8 µM | TGI (HCT-116 colon): > 100 µM | TGI (HT29 colon): 59.9 µM | TGI (MALME-3M melanoma): > 100 µM | TGI (NCI-H522 lung): > 100 µM | TGI (NCI/ADR-RES ovarian): > 100 µM | TGI (SR leukemia): 39.6 µM | TGI (OVCAR-8 ovarian): > 100 µM | TGI (MCF7 breast): > 100 µM | TGI (M14 melanoma): > 100 µM | TGI (HOP-92 NSCLC): > 100 µM | TGI (UACC-62 melanoma): > 100 µM | TGI (A549 NSCLC): > 100 µM | TGI (HCC-2998 colon): > 100 µM | TGI (MDA-N): > 100 µM | TGI (786-0 renal): > 100 µM | TGI (OVCAR-4 ovarian): 95 µM | TGI (SK-MEL-5 melanoma): > 100 µM
